Data set [1] is described as follows: Mean arterial blood pressure (MAP). It counts as in vivo, rat. As to conditions: s.c. 60 min. before electrical stimulation of the saphenous nerve. On the procedure: For injections of drugs into the brain, a 21-gauge guide cannula was stereotaxically implanted into the lateral ventricle and a 28-gauge internal cannula coupled to a Hamilton microsyringe was used to deliver a 5-μl volume of drug solution to the brain. The site of injection was verified by injections of 0.5% solutions of methylene blue into the same cannula. In some experiments, blood pressure was measured from a cannulated carotid artery coupled to a Narcobiosystems strain gauge, cardiotachometer and polygraph. Mean arterial blood pressure (MAP) was calculated as 1/3 pulse pressure plus diastolic pressure.
As has been known, CRF and related peptides produce hypotension in anesthetized and unanesthetized animals. […] Neither does the inflammation inhibition of the present invention appear to have any associaton with the hypotensive properties of CRF and its analogs.

The test system of data set [2] is rat hind paw. As to the kind of experiment: Heat-induced paw edema and protein extravasation (Evans blue), hind paw in 58° C. water for 5 min. It counts as in vivo. On the procedure: Male albino rats weighing 200 to 280 g were anesthetized with sodium pentobarbital, 60 mg/kg i.p., and a right jugular vein cannulated for drug injections. Human/rat CRF (at various dosages described below) or saline, and Evans blue dye, 50 mg/kg, were injected intravenously 10 and 3 min., respectively, before immersion of the hind paw in 48° C. or 58° C. water for 5 min. The frequency of paw withdrawal from the water was then counted.
(§1) At the end of the exposure period, the animals were sacrificed and the dorsal skin, between the calcaneal process and phalanges, was removed from both paws, weighed, and each placed in 4 ml of formamide for 3 days at room temperature. The extracted Evans blue was quantified colorimetrically at 600 nm with readings from the untreated paw skin used as the blank values.
Protein extravasation was measured by injecting a dye into a blood compartment of the animal. The dye binds to blood proteins and when the permeability of the tissue is increased by the heat, the dye leaks into the skin of the paw. The skin of the paw was excised, the dye extracted, and the amount of dye in the skin was measured to provide an index of the skin permeability changes that accompany the heat damage. […] In a manner analogous to that described above for administration of CRF, sauvagine was administered and paws of the anesthetized recipients exposed to water at 58° C. Saline was administered to a control group. The dose of sauvagine was 5 μg/kg given i.v. 5 min. before paw immersion.
In addition, other groups of rats were administered eithe rmorphine sulfate or dexamethasone, and groups of rats were administered saline as controls.

For data set [3], the system named is rat hind paw. As to the kind of experiment: Heat-induced paw edema and protein extravasation, hind paw in 48° C. water for 5 min. It is filed as in vivo. To be noted: sauvagine 5 μg/kg i.v. 5 min. before. As to the method: Male albino rats weighing 200 to 280 g were anesthetized with sodium pentobarbital, 60 mg/kg i.p., and a right jugular vein cannulated for drug injections. […] The frequency of paw withdrawal from the water was then counted. Leakage of Evans blue dye into the paw skin becomes visible within 2 min. At water temperatures of 58° C., the average dye content was 364±17 μg/paw for rats receiving saline.
as §1
FIG. 3 illustrates the inhibition by CRF of heat-induced tissue edema, as measured by changes in skin weight. When the paw of an untreated, anesthetized rat is placed in warm water (48° C.) for 5 min., the paw swells and this paw edema can be measured simply by weighing the heated paw skin and comparing its weight to the contralateral, unheated paw skin. If just saline (that is, isotonic salt water) is injected as the control procedure, the percent increase in weight (with respect to unheated paw) is 72%.

[4] abbreviates: 0.94 mg/kg i.v., 20 min. before exposure.
[5] abbreviates: 3.75 mg/kg i.v., 20 min. before exposure.
[6] abbreviates: 0.50 mg/kg i.v., 5 min. before exposure.
The mark [7] stands for this setting: 0.005 mg/kg i.v., 5 min. before exposure.
Setting [8] is: Table I, sheep CRF at 0.168 mg/kg i.v., sauvagine at 5 μg/kg i.v.
The mark [9] stands for this setting: 3.0 mg/kg i.v., 5 min. before exposure.

In the case of `CC[C@H](C)[C@H](NC(=O)[C@@H](NC(=O)[C@H](CCC(=O)O)NC(=O)[C@H](CCSC)NC(=O)[C@H](CC(C)C)NC(=O)[C@H](CCCCN)NC(=O)[C@H](CCCNC(=N)N)NC(=O)[C@H](CC(N)=O)NC(=O)[C@H](CO)NC(=O)[C@H](Cc1c[nH]cn1)NC(=O)[C@H](C)NC(=O)[C@H](CCC(N)=O)NC(=O)[C@H](CCC(N)=O)NC(=O)[C@H](C)NC(=O)[C@H](CC(C)C)NC(=O)[C@H](CCC(N)=O)NC(=O)[C@H](CCC(=O)O)NC(=O)[C@H](C)NC(=O)[C@H](CCCNC(=N)N)NC(=O)[C@H](C)NC(=O)[C@H](CCSC)NC(=O)[C@H](CCC(=O)O)NC(=O)[C@H](CC(C)C)NC(=O)[C@@H](NC(=O)[C@H](CCC(=O)O)NC(=O)[C@H](CCCNC(=N)N)NC(=O)[C@H](CC(C)C)NC(=O)[C@H](CC(C)C)NC(=O)[C@H](Cc1c[nH]cn1)NC(=O)[C@H](Cc1ccccc1)NC(=O)[C@@H](NC(=O)[C@H](CC(C)C)NC(=O)[C@H](CC(=O)O)NC(=O)[C@H](CC(C)C)NC(=O)[C@H](CO)NC(=O)[C@@H](NC(=O)[C@@H]1CCCN1C(=O)[C@@H]1CCCN1C(=O)[C@H](CCC(=O)O)NC(=O)[C@H](CCC(=O)O)NC(=O)[C@@H](N)CO)[C@@H](C)CC)[C@@H](C)O)C(C)C)[C@@H](C)CC)C(N)=O` [rCRF, Corticotropin Releasing Factor], the “effect on mean arterial pressure” value in data set [1] is recorded as “did not lower mean arterial pressure”.
dynorphin (1-13): in the data set with rat hind paw [2] (940 μg/kg), the “reduction of edema (in words)” value is given as “did not” and the “reduction of protein extravasation (in words)” value was “did not”. Further, in the data set on rat hind paw [2] (setting [4]), the “% Weight Increase” value came out at 194 ± 6% and the “Dye μg/paw” value is recorded as 411 ± 15 μg/paw. In the data set on rat hind paw [2] (3750 μg/kg i.v.), the “reduction of edema (in words)” value is “did reduce edema”; the “reduction of protein extravasation (in words)” value is “did reduce edema and protein extravasation”. In the data set with rat hind paw [2] (setting [5]), the “% Weight Increase” value is 87 ± 17% and the “Dye μg/paw” value came out at 223 ± 37 μg/paw.
With `C[C@@H]1C[C@H]2[C@@H]3CCC4=CC(=O)C=C[C@]4(C)[C@@]3(F)[C@@H](O)C[C@]2(C)[C@@]1(O)C(=O)CO` [dexamethasone, reference compound], in the data set on rat hind paw [2] (setting [6]), the “% Weight Increase” value is given as 170 ± 14% and the “Dye μg/paw” value came out at 375 ± 23 μg/paw. Also, in the data set with rat hind paw [2] (doses of Table I), the “inhibition of edema (in words)” value was “neither morphine nor dexamethasone inhibits either edema” and the “inhibition of protein extravasation / dye leakage (in words)” value is reported as “neither morphine nor dexamethasone inhibits”.
Turning to sauvagine, in the data set with rat hind paw [2] (setting [7]), the “% Weight Increase” value came out at 51 ± 11% and the “Dye μg/paw” value was 86 ± 18 μg/paw. Besides, in the data set with rat hind paw [2] (setting [8]), the “reduction of edema relative to saline” value is reported as “about comparable to the sheep CRF at 168 μg/kg i.v. in reducing edema” and the “reduction of protein extravasation relative to saline” value is given as “even more effective in reducing protein extravasation”. Besides, in the data set on rat hind paw [3], the dye increase was found to be 13.7 ± 3.5 μg/paw and the “paw skin weight increase” value is listed as 4.9%+2.0.
Regarding `CN1CC[C@]23c4c5ccc(O)c4O[C@H]2[C@@H](O)C=C[C@H]3[C@H]1C5.O=S(=O)(O)O` [morphine SO4, morphine sulfate, reference compound], in the data set on rat hind paw [2] (setting [9]), the “% Weight Increase” value is 157 ± 12% and the “Dye μg/paw” value came to 290 ± 36 μg/paw.

(Values after patent US4801612A, “Method of inhibiting inflammatory response” (Regents of the University of California, priority 1986, dated 1989).)
